Test results taken from the kinase profiling compilation of Christmann-Franck et al. (2016).

Assays:
Test in all cases: radiometric filter-binding kinase assay, Kinase HotSpot
Conditions in all cases: compound 0.5 µM; ATP 10 µM
DYRK3 (human) = DYRK3 (human) (UniProt O43781)
ROCK2 (human) = ROCK2 (human) (UniProt O75116)
CDK5 CDK5R1 p35 (human) = CDK5 CDK5R1 p35 (human) (UniProt Q00535+Q15078)
GSK3A (human) = GSK3A (human) (UniProt P49840)
PDGFRB (human) = PDGFRB (human) (UniProt P09619)
PRKCD (human) = PRKCD (human) (UniProt Q05655)
MST1R (human) = MST1R (human) (UniProt Q04912)
TSSK1B (human) = TSSK1B (human) (UniProt Q9BXA7)
PKN1 (human) = PKN1 (human) (UniProt Q16512)
MAPKAPK3 (human) = MAPKAPK3 (human) (UniProt Q16644)
STK17A (human) = STK17A (human) (UniProt Q9UEE5)
FGFR4 (human) = FGFR4 (human) (UniProt P22455)
NEK11 (human) = NEK11 (human) (UniProt Q8NG66)
NLK (human) = NLK (human) (UniProt Q9UBE8)
YES1 (human) = YES1 (human) (UniProt P07947)
OXSR1 (human) = OXSR1 (human) (UniProt O95747)
MAP3K10 (human) = MAP3K10 (human) (UniProt Q02779)
PRKCA (human) = PRKCA (human) (UniProt P17252)
CSNK1G3 (human) = CSNK1G3 (human) (UniProt Q9Y6M4)
RPS6KB2 (human) = RPS6KB2 (human) (UniProt Q9UBS0)
ULK2 (human) = ULK2 (human) (UniProt Q8IYT8)
SRMS (human) = SRMS (human) (UniProt Q9H3Y6)
PTK2 (human) = PTK2 (human) (UniProt Q05397)
MAPK3 (human) = MAPK3 (human) (UniProt P27361)
CSNK1D (human) = CSNK1D (human) (UniProt P48730)
STK25 (human) = STK25 (human) (UniProt O00506)
EPHA2 (human) = EPHA2 (human) (UniProt P29317)
CSNK2A2 (human) = CSNK2A2 (human) (UniProt P19784)
MAP2K2 (human) = MAP2K2 (human) (UniProt P36507)
STK10 (human) = STK10 (human) (UniProt O94804)
CAMK4 (human) = CAMK4 (human) (UniProt Q16566)
CAMK1D (human) = CAMK1D (human) (UniProt Q8IU85)
CAMKK1 (human) = CAMKK1 (human) (UniProt Q8N5S9)
HIPK4 (human) = HIPK4 (human) (UniProt Q8NE63)
PRKD1 (human) = PRKD1 (human) (UniProt Q15139)
SRPK2 (human) = SRPK2 (human) (UniProt P78362)
NEK9 (human) = NEK9 (human) (UniProt Q8TD19)
PHKG1 (human) = PHKG1 (human) (UniProt Q16816)
TXK (human) = TXK (human) (UniProt P42681)
MAPK1 (human) = MAPK1 (human) (UniProt P28482)
[1] = target: TYK2 JH1 catalytic (human) (UniProt P29597)
CDK4 CCND1 (human) = CDK4 CCND1 (human) (UniProt P24385+P11802)

Chain of PRKCD (human) (Q05655 whole entry, looked up): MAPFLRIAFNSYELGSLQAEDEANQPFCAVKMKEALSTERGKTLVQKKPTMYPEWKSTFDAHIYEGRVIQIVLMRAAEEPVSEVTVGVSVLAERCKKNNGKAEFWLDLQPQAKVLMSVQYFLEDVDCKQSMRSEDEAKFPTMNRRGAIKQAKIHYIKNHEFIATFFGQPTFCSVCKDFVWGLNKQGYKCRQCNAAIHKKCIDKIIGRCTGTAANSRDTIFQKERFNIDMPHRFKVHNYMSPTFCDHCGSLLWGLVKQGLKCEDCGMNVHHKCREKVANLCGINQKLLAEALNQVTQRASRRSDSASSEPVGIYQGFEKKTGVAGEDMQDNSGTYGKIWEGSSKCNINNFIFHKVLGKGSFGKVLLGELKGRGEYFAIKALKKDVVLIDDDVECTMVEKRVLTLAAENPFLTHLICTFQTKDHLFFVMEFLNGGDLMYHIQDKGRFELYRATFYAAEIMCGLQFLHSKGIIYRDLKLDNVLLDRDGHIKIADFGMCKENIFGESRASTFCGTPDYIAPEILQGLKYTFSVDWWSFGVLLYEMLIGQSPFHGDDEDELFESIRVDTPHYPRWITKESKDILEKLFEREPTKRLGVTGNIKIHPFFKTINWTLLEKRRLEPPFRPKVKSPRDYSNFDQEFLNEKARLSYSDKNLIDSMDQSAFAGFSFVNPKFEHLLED
Chain of SRMS (human) (Q9H3Y6 whole entry, looked up): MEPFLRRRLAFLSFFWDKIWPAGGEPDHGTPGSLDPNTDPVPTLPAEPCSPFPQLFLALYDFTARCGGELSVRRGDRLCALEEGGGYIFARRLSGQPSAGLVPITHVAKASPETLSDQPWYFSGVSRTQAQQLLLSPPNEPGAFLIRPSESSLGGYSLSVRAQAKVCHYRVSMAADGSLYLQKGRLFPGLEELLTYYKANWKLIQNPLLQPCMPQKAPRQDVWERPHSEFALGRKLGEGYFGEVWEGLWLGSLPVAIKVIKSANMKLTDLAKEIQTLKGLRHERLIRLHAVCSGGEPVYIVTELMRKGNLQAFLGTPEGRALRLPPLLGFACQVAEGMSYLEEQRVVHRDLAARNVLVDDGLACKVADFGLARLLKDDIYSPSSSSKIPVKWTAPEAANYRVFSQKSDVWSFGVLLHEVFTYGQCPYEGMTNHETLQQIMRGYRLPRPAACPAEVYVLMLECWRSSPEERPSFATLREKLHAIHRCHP
Chain of TSSK1B (human) (Q9BXA7 whole entry, looked up): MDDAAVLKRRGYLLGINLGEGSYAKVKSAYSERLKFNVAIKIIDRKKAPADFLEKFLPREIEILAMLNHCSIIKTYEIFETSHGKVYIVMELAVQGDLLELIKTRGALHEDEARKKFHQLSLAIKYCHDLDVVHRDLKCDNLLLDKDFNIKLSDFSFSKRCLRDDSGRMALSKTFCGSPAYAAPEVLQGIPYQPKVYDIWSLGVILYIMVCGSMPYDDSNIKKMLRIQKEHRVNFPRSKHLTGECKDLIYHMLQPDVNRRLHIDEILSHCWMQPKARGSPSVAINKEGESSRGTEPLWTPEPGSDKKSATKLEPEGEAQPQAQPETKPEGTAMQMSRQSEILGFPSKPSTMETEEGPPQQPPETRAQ
Chain of FGFR4 (human) (P22455 whole entry, looked up): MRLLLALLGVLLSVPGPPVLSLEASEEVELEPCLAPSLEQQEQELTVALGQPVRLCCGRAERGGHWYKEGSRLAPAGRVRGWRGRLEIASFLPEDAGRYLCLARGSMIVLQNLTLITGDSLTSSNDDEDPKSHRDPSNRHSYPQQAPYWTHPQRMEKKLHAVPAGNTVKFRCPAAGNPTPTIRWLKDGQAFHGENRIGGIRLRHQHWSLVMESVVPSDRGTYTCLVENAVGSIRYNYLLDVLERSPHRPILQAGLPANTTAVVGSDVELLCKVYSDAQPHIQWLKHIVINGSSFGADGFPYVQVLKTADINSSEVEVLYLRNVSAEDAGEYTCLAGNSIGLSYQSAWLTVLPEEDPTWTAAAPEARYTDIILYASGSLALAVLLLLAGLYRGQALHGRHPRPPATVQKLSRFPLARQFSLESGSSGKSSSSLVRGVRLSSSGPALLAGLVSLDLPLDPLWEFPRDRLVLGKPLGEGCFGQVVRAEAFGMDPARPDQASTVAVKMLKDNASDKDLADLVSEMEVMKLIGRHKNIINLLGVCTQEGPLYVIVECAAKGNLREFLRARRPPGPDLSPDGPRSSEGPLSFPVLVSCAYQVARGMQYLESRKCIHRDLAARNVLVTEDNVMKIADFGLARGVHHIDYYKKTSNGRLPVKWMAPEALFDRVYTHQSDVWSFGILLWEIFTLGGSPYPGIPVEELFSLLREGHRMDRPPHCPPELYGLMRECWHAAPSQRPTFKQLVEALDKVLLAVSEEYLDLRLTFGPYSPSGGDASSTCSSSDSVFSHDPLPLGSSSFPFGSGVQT
Chain of MAP3K10 (human) (Q02779 whole entry, looked up): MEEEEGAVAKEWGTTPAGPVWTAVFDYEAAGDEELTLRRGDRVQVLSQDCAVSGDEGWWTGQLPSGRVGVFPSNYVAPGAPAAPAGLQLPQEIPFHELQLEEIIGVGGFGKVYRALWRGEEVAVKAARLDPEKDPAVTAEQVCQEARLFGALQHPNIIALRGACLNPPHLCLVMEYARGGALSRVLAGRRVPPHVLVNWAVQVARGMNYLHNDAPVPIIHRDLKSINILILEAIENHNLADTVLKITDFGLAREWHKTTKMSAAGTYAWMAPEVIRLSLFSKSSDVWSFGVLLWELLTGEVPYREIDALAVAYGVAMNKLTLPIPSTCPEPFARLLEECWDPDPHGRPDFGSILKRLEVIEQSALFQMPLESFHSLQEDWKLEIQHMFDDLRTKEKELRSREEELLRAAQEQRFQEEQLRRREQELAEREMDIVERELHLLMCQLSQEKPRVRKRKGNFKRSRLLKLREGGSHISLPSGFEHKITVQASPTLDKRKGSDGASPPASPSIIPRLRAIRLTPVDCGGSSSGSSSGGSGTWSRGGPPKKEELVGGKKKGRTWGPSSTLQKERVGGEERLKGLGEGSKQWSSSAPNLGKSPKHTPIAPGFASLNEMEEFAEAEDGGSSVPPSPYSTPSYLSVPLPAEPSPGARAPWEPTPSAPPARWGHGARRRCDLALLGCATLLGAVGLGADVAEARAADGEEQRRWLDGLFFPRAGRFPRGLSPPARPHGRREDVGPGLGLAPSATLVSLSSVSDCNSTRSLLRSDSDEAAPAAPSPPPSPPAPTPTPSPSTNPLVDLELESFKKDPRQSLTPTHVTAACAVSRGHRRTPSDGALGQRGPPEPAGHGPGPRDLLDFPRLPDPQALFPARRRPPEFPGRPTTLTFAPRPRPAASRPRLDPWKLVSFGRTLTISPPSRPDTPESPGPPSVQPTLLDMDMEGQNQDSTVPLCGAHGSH
Chain of STK25 (human) (O00506 whole entry, looked up): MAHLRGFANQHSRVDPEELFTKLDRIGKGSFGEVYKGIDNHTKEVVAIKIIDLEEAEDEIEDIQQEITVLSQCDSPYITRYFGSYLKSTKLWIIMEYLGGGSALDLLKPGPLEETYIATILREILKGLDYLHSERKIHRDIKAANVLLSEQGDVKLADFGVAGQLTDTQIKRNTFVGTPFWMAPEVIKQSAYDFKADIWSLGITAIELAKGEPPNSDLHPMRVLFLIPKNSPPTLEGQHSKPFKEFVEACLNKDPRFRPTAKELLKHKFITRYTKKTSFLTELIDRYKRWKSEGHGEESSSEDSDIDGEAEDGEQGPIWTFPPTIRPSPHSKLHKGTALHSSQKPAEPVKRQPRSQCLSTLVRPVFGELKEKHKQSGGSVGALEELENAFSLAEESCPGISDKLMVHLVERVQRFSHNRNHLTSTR
Chain of STK17A (human) (Q9UEE5 whole entry, looked up): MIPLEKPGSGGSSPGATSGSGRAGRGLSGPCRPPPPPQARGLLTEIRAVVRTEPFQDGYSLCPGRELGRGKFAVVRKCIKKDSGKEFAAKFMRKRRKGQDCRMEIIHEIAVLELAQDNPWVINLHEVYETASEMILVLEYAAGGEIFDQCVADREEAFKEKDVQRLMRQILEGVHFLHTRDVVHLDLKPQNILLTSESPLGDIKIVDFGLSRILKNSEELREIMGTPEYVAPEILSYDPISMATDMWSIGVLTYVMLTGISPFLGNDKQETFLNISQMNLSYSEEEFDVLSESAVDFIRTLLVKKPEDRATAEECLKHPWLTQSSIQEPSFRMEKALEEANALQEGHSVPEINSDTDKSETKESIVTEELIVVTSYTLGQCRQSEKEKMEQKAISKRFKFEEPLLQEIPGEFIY
Chain of PHKG1 (human) (Q16816 whole entry, looked up): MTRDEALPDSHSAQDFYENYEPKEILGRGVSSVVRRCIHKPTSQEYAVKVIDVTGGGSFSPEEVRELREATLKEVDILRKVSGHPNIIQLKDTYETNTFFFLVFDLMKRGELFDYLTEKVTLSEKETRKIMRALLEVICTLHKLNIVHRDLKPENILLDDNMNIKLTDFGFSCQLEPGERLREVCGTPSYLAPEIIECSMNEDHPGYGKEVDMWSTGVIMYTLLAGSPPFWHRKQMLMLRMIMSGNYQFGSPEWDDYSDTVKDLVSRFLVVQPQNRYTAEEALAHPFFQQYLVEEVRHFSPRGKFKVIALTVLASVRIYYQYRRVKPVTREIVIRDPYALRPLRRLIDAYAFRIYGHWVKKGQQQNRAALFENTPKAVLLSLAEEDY
Chain of CAMK4 (human) (Q16566 whole entry, looked up): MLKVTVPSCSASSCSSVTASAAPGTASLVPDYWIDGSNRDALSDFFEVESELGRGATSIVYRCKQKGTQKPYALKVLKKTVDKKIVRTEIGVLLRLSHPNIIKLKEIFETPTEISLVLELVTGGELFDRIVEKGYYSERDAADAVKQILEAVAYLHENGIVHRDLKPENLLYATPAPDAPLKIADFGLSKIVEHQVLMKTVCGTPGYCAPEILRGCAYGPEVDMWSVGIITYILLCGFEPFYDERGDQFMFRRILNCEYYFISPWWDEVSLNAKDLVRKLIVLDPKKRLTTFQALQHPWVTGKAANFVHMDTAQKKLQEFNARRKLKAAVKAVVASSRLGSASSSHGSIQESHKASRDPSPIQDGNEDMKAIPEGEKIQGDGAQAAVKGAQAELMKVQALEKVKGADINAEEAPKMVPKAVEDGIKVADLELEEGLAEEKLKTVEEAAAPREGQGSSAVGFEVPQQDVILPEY

Molecule Cn1cc(/C=C2\C(=O)Nc3ccc(S(N)(=O)=O)cc32)c2ccccc21 has a residual activity (DYRK3 (human)) of 89.7%, a residual activity (ROCK2 (human)) of 41% and a residual activity (CDK5 CDK5R1 p35 (human)) of 55.8%. For the same molecule, the residual activity (GSK3A (human)) was 100%, the residual activity (PDGFRB (human)) was 66% and the residual activity (PRKCD (human)) was 91.3%. The residual activity (MST1R (human)) was 100%, the residual activity (TSSK1B (human)) was 17% and the residual activity (PKN1 (human)) was 68.9%. It also gave a residual activity (MAPKAPK3 (human)) of 91.5%, a residual activity (STK17A (human)) of 57.5% and a residual activity (FGFR4 (human)) of 74.1%. For the same molecule, the residual activity (NEK11 (human)) was 96.1%, the residual activity (NLK (human)) was 90.4% and the residual activity (YES1 (human)) was 24.2%. It also gave a residual activity (OXSR1 (human)) of 93.7%, a residual activity (MAP3K10 (human)) of 95.9% and a residual activity (PRKCA (human)) of 123%. The residual activity (CSNK1G3 (human)) was 109%, the residual activity (RPS6KB2 (human)) was 94.6% and the residual activity (ULK2 (human)) was 72.3%. The residual activity (SRMS (human)) was 99.8%, the residual activity (PTK2 (human)) was 94.1% and the residual activity (MAPK3 (human)) was 109%. For the same molecule, the residual activity (CSNK1D (human)) was 102%, the residual activity (STK25 (human)) was 83.5% and the residual activity (EPHA2 (human)) was 93%. It also gave a residual activity (CSNK2A2 (human)) of 66%, a residual activity (MAP2K2 (human)) of 94.7% and a residual activity (STK10 (human)) of 17%. The residual activity (CAMK4 (human)) was 96.4%, the residual activity (CAMK1D (human)) was 69.6% and the residual activity (CAMKK1 (human)) was 44.9%. The residual activity (HIPK4 (human)) was 86.2%, the residual activity (PRKD1 (human)) was 80% and the residual activity (SRPK2 (human)) was 51.4%. It also gave a residual activity (NEK9 (human)) of 67.3%, a residual activity (PHKG1 (human)) of 20.6% and a residual activity (TXK (human)) of 51.3%. For the same molecule, the residual activity (MAPK1 (human)) was 98.2%, the residual activity [1] was 35% and the residual activity (CDK4 CCND1 (human)) was 106%.
FC(F)(F)c1ccc(/C=C/c2nc(COc3ccc(CCCCn4ccnn4)cc3)co2)cc1 gave a residual activity (DYRK3 (human)) of 109%, a residual activity (ROCK2 (human)) of 99.7% and a residual activity (CDK5 CDK5R1 p35 (human)) of 99.4%. The residual activity (GSK3A (human)) was 102%, the residual activity (PDGFRB (human)) was 98.1% and the residual activity (PRKCD (human)) was 99.6%. The residual activity (MST1R (human)) was 104%, the residual activity (TSSK1B (human)) was 93.4% and the residual activity (PKN1 (human)) was 97%. It also gave a residual activity (MAPKAPK3 (human)) of 98.9%, a residual activity (STK17A (human)) of 103% and a residual activity (FGFR4 (human)) of 88.3%. The residual activity (NEK11 (human)) was 97.6%, the residual activity (NLK (human)) was 101% and the residual activity (YES1 (human)) was 85%. For the same molecule, the residual activity (OXSR1 (human)) was 99.7%, the residual activity (MAP3K10 (human)) was 98.9% and the residual activity (PRKCA (human)) was 111%. The residual activity (CSNK1G3 (human)) was 96.7%, the residual activity (RPS6KB2 (human)) was 103% and the residual activity (ULK2 (human)) was 99.6%. It also gave a residual activity (SRMS (human)) of 93.5%, a residual activity (PTK2 (human)) of 101% and a residual activity (MAPK3 (human)) of 100%. The residual activity (CSNK1D (human)) was 96.6%, the residual activity (STK25 (human)) was 91.8% and the residual activity (EPHA2 (human)) was 102%. The residual activity (CSNK2A2 (human)) was 102%, the residual activity (MAP2K2 (human)) was 114% and the residual activity (STK10 (human)) was 92.6%. It also gave a residual activity (CAMK4 (human)) of 97.7%, a residual activity (CAMK1D (human)) of 109% and a residual activity (CAMKK1 (human)) of 96.7%. For the same molecule, the residual activity (HIPK4 (human)) was 105%, the residual activity (PRKD1 (human)) was 93.2% and the residual activity (SRPK2 (human)) was 101%. The residual activity (NEK9 (human)) was 95.5%, the residual activity (PHKG1 (human)) was 92.9% and the residual activity (TXK (human)) was 101%. For the same molecule, the residual activity (MAPK1 (human)) was 88.6%, the residual activity [1] was 99.1% and the residual activity (CDK4 CCND1 (human)) was 96.8%.
COc1cc2c(cc1OC)-c1[nH]nc(Nc3cccc(F)c3)c1C2 showed a residual activity (DYRK3 (human)) of 84.4%, a residual activity (ROCK2 (human)) of 95.2% and a residual activity (CDK5 CDK5R1 p35 (human)) of 102%. For the same molecule, the residual activity (GSK3A (human)) was 101%, the residual activity (PDGFRB (human)) was 45.3% and the residual activity (PRKCD (human)) was 111%. It also gave a residual activity (MST1R (human)) of 99.1%, a residual activity (TSSK1B (human)) of 71.7% and a residual activity (PKN1 (human)) of 106%. For the same molecule, the residual activity (MAPKAPK3 (human)) was 90.8%, the residual activity (STK17A (human)) was 87% and the residual activity (FGFR4 (human)) was 91.6%. For the same molecule, the residual activity (NEK11 (human)) was 98.9%, the residual activity (NLK (human)) was 74.1% and the residual activity (YES1 (human)) was 61.3%. The residual activity (OXSR1 (human)) was 121%, the residual activity (MAP3K10 (human)) was 87.1% and the residual activity (PRKCA (human)) was 99.2%. The residual activity (CSNK1G3 (human)) was 95%, the residual activity (RPS6KB2 (human)) was 100% and the residual activity (ULK2 (human)) was 97.3%. For the same molecule, the residual activity (SRMS (human)) was 99.9%, the residual activity (PTK2 (human)) was 88.2% and the residual activity (MAPK3 (human)) was 93.7%. For the same molecule, the residual activity (CSNK1D (human)) was 99.9%, the residual activity (STK25 (human)) was 103% and the residual activity (EPHA2 (human)) was 93.8%. It also gave a residual activity (CSNK2A2 (human)) of 105%, a residual activity (MAP2K2 (human)) of 99.8% and a residual activity (STK10 (human)) of 89%. It also gave a residual activity (CAMK4 (human)) of 106%, a residual activity (CAMK1D (human)) of 89.8% and a residual activity (CAMKK1 (human)) of 81.5%. For the same molecule, the residual activity (HIPK4 (human)) was 90%, the residual activity (PRKD1 (human)) was 93.6% and the residual activity (SRPK2 (human)) was 87.8%. The residual activity (NEK9 (human)) was 102%, the residual activity (PHKG1 (human)) was 89% and the residual activity (TXK (human)) was 60.6%. For the same molecule, the residual activity (MAPK1 (human)) was 85.1%, the residual activity [1] was 81.3% and the residual activity (CDK4 CCND1 (human)) was 93.9%.
In the case of Cc1cc(Nc2nc(-c3ccccc3)nc3ccccc23)n[nH]1, the residual activity (DYRK3 (human)) is reported as 81.9%, the residual activity (ROCK2 (human)) is reported as 87.6% and the residual activity (CDK5 CDK5R1 p35 (human)) is reported as 77.1%. The residual activity (GSK3A (human)) was 11.3%, the residual activity (PDGFRB (human)) was 55.4% and the residual activity (PRKCD (human)) was 91.3%. The residual activity (MST1R (human)) was 96.6%, the residual activity (TSSK1B (human)) was 76.7% and the residual activity (PKN1 (human)) was 89.9%. The residual activity (MAPKAPK3 (human)) was 81%, the residual activity (STK17A (human)) was 81.3% and the residual activity (FGFR4 (human)) was 81.9%. It also gave a residual activity (NEK11 (human)) of 105%, a residual activity (NLK (human)) of 94.7% and a residual activity (YES1 (human)) of 20.4%. The residual activity (OXSR1 (human)) was 98.1%, the residual activity (MAP3K10 (human)) was 75.4% and the residual activity (PRKCA (human)) was 92.2%. The residual activity (CSNK1G3 (human)) was 75%, the residual activity (RPS6KB2 (human)) was 99.7% and the residual activity (ULK2 (human)) was 95.1%. The residual activity (SRMS (human)) was 98.7%, the residual activity (PTK2 (human)) was 59.9% and the residual activity (MAPK3 (human)) was 80.8%. The residual activity (CSNK1D (human)) was 96.7%, the residual activity (STK25 (human)) was 86.7% and the residual activity (EPHA2 (human)) was 94.8%. It also gave a residual activity (CSNK2A2 (human)) of 15%, a residual activity (MAP2K2 (human)) of 102% and a residual activity (STK10 (human)) of 56.2%. It also gave a residual activity (CAMK4 (human)) of 94.1%, a residual activity (CAMK1D (human)) of 85.4% and a residual activity (CAMKK1 (human)) of 90.7%. For the same molecule, the residual activity (HIPK4 (human)) was 102%, the residual activity (PRKD1 (human)) was 77.4% and the residual activity (SRPK2 (human)) was 68.8%. The residual activity (NEK9 (human)) was 79.9%, the residual activity (PHKG1 (human)) was 71.7% and the residual activity (TXK (human)) was 45.3%. For the same molecule, the residual activity (MAPK1 (human)) was 89.3%, the residual activity [1] was 34.3% and the residual activity (CDK4 CCND1 (human)) was 100%.
